In article PMC4388757, “In Vitro and In Vivo Metabolism and Inhibitory Activities of Vasicine, a Potent Acetylcholinesterase and Butyrylcholinesterase Inhibitor” (PLoS ONE, 2015):
Where a name gives a salt, the structure may show the parent alone. Read-outs that look alike come from different tables or passages of the source.

Experiments:
[1] = biological target: T1, AChE from Electrophorus electricus (Electrophorus electricus, UniProt O42275); experiment: biochemical; type: biochemical; settings: for IC50: means ± SD of three replicate determinations; for fold reduction of AChE inhibitory activity: VAO vs VAS, VAO-3-S vs VAS-3-S, VAS-3-G vs VAS
T1 construct: purchased Sigma Aldrich Co. (St. Louis, MO, USA)
From the text: VAS and VAO were isolated from P. harmala in our laboratory according to a previously reported method. VAS and VAO structures were elucidated by comparing their spectral data (UV, MS, ^1H-NMR, and ^13C NMR) with the references. […] AChE from Electrophorus electricus, BChE from equine serum, acetylcholine (ACh) chloride, butyrocholine (BCh) chloride, choline (Ch) chloride, chlormequat (internal standard, IS), glucose 6-phosphate, glucose-6-phosphate dehydrogenase, NADP, UDPGA, alamethicin, fetal bovine serum, dexamethasone, and insulin were purchased from Sigma Aldrich Co. (St. Louis, MO, USA). Tris base and MgCl2 were purchased from Majorbio Biotech Corp., Ltd. (Shanghai, China). MCI Gel CHP 20P was purchased from Mitsubishi Chemical Crop. (Tokyo, Japan). Silica Gel C18 (MB 100-40/75) was purchased from Fuji Silysia Chemical Ltd. (Kasugai, Japan). Acetonitrile and methanol of HPLC grade were purchased from Fisher Scientific Co. (Santa Clara, USA). HPLC grade 96% formic acid was purchased from Tedia Co. (Fairfield, USA). Water was produced with a Milli-Q Academic System (Millipore, Billerica, MA). All other reagents and solvents were either analytical or HPLC grade.
(§1) The AChE and BChE inhibitory activities of VAS and its main metabolites, namely, VAO, VASL, VAOL, VAS-3-S, VAO-3-S, and VAS-3-G, were evaluated based on our previously established method. A 50 μL incubation system composed of 10 μL of the test compound solution (all the test compound solutions were diluted to a series of concentrations with buffer solution before each experiment) and 40 μL of the enzyme solutions (with final concentrations: 0.0035 unit/mL for AChE, or 0.008 unit/mL for BChE) were mixed and pre-incubated for 15 min. Up to 50 μL of substrate solution (final concentration of 5.505 μM for ACh, or 7.152 μM for BCh) was added into the mixture, which was then incubated for 20 min at 25°C. The reaction was terminated by addition of 300 μL of ice acetonitrile solution (0°C), which was immediately dissolved with 1.899 μM IS (chlormequat). The solution was then centrifuged (15,000 × g, 10 min), and the supernatant was used for analysis by UPLC-ESI MS/MS. The inhibitive IC50 values of VAS and its key metabolites on AChE and BChE were calculated using the Prism software (GraphPad Software Inc., San Diego, CA).

BChE from equine serum [2] = biological target: T2, BChE from equine serum (Equus caballus, UniProt P81908); experiment: In vitro anticholinesterase assay (UPLC-ESI MS/MS), BChE; type: biochemical; settings: for fold reduction of BChE inhibitory activity: VAO vs VAS, VAO-3-S vs VAS-3-S, VAS-3-G vs VAS; for IC50: means ± SD of three replicate determinations
T2 construct: BChE from equine serum; purchased Sigma Aldrich Co. (St. Louis, MO, USA); host or cells: equine serum
Procedure: VAS and VAO were isolated from P. harmala in our laboratory according to a previously reported method. VAS and VAO structures were elucidated by comparing their spectral data (UV, MS, ^1H-NMR, and ^13C NMR) with the references. The purities of VAS and VAO were determined to be more than 98% through normalization of the peak areas detected by HPLC-DAD, UPLC-MS/MS, ^1H-NMR, and ^13C NMR. AChE from Electrophorus electricus, BChE from equine serum, acetylcholine (ACh) chloride, butyrocholine (BCh) chloride, choline (Ch) chloride, chlormequat (internal standard, IS), glucose 6-phosphate, glucose-6-phosphate dehydrogenase, NADP, UDPGA, alamethicin, fetal bovine serum, dexamethasone, and insulin were purchased from Sigma Aldrich Co. (St. Louis, MO, USA). Tris base and MgCl2 were purchased from Majorbio Biotech Corp., Ltd. (Shanghai, China). MCI Gel CHP 20P was purchased from Mitsubishi Chemical Crop. (Tokyo, Japan). Silica Gel C18 (MB 100-40/75) was purchased from Fuji Silysia Chemical Ltd. (Kasugai, Japan). Acetonitrile and methanol of HPLC grade were purchased from Fisher Scientific Co. (Santa Clara, USA). HPLC grade 96% formic acid was purchased from Tedia Co. (Fairfield, USA). Water was produced with a Milli-Q Academic System (Millipore, Billerica, MA). All other reagents and solvents were either analytical or HPLC grade.
as §1

[3] = Metabolite detection in rat bio-specimens (urine, feces, bile, plasma) by UPLC/ESI-QTOF-MS after oral VAS; type: in vivo
From the text: Bio-specimens (urine, feces, bile and plasma) collected form 18 male rats were used to study the VAS metabolism in vivo. […] Baseline urine and fecal samples were collected before oral administration of VAS. After intraperitoneal injection of urethane (1.4 g/kg), abdominal incision was made for bile sampling and the common bile duct was cannulated with a Closed IV Catheter System (ID = 0.07 cm, Becton Dickinson, USA) to collect bile samples. […] Baseline rat bile was collected before oral administration of VAS. All the samples were stored at −20°C until analysis. Blood was collected from the angular vein of the last six male rats at 0.25, 0.5, 1, and 2 h after oral administration of VAS 50 mg/kg VAS. Plasma was obtained by centrifuging blood at 4000 × g for 10 min, and then stored at −20°C until use.
Up to 1 mL of urine was thoroughly mixed with same volume of acetonitrile, and then centrifuged at 15,000 × g for 10 min. The supernatant was evaporated until dry under nitrogen at 37°C. The residue of the supernatant was re-dissolved in 200 μL of 5% methanol, and then centrifuged at 15,000 × g for 10 min. The supernatant was injected into the chromatographic systems for separation and identification of metabolites.
The supernatant was then evaporated to dryness by a gentle stream of nitrogen at 37°C. The residue was dissolved by 200 μL of 5% methanol and centrifuged at 15,000 × g for 10 min prior to injection.
Plasma or bile (400 μL) was mixed and vortexed with 1200 μL of acetonitrile for […], then centrifuged at 15,000 × g for 10 min at 4°C. Afterward, the supernatant was evaporated until dry by a gentle stream of nitrogen at 37°C. The residue was dissolved by 80 μL of 5% methanol and centrifuged at 15,000 × g for 10 min. The supernatants (5 μL) were used in the UPLC/ESI-QTOF-MS analysis.
Chromatographic analysis was performed on an HSS T3 column (100 mm × 2.1 mm, 1.8 μm particle size; Waters Corporation, Milford, MA, USA) for separation of samples using an ACQUITY UPLC system equipped with a binary solvent manager system and an autosampler. […] The flow rate was 0.4 mL/min. The column and sample-tray temperatures were maintained at 40°C and 10°C, respectively.
A Waters ACQUITY Synapt G2 Q/TOF tandem mass spectrometer was combined with the UPLC system through an electrospray ionization (ESI) interface and controlled by Masslynx software (version 4.1, Waters Corp., Manchester, UK). The positive ionization mode of ESI source was operated. The optimized conditions for maximum detection of metabolites were as follows: source temperature, 120°C; desolvation temperature, 400°C; capillary voltage, 3.0 kV; sample cone, 30 V and extraction cone, 4.0 V. The cone and desolvation gas (N2) flows were set at 75 and 800 (L/h), respectively. […] Data were collected in centroid mode and the MS^E approach using a dynamic ramp of collision energy was carried out in two scan functions. Function 1 (low energy): mass scan ranged from 100–1000,with 0.2 s scan time and 0.05 s inter-scan delay; Function 2 (high energy): mass scan ranged from 100–1000 with 0.2 s scan time, 0.05 s inter-scan delay, and collision energy ramp of 10–40 V. MS/MS analysis were operated for major metabolites to obtain additional information from product ions since the same collision energy of MS^E in Function 2 could not match each precursor ion.

[4] = Stability of glucuronide metabolites in collected urine; type: physicochemical; settings: room temperature for an excessively long time, pH > 10
[5] = parameters: method as in ref [36] = [36]; 36 Swamy G , Ravikumar K . Crystal and molecular structures of quinazolines: A ring conformational study . J Chem Crystallogr . 2005; 35 : 183 – 189 .; settings: in vitro and in vivo; ref [36]; cited from earlier work
[6] = parameters: method as in ref [37] = [37]; 37 Bhide M , Naik P , Ghooi R . Comparative studies on the pharmacological evaluation of vasicine and vasicinone . Bull Haffkin Inst . 1976; 4 : 45 – 50 .; settings: comparable to sodium cromoglycate; ref [37]; cited from earlier work
[7] = Bioavailability studies of VAS (unpublished data of the laboratory); settings: in vivo, no published data; for half-life: read-out: elimination half-life (converted)
From the text: (§2) It illustrated that VAS is safe as a potential candidate drug.

[8] = LD50 determination of VAS (unpublished data); settings: in vivo; no published data
From the text: as §2

rats = experiment: Observation of side effects during 21-day oral dosing for urine collection; type: in vivo, rat; settings: 15 rats, oral 100 mg/kg once a day for 21 consecutive days
Procedure: The urine samples used for isolating and purifying the metabolites were collected from 15 rats that were given VAS orally once a day, over 21 consecutive days, at dose of 100 mg/kg body weight. In total, approximately 5 L of urine was collected and centrifuged at 4000 × g for 15 min. The supernatant was then stored at −20°C until use. At the end of experiment, all rats were sacrificed by CO2 asphyxiation.
as §2

[9] = biological target: T1, AChE from Electrophorus electricus; parameters: method as in PMID 23270245, doi:10.1155/2013/71723, PMID 24631841; settings: previous studies; ref [3], [6]–[8]; read-out: IC50 against AChE; cited from earlier work
BChE from equine serum [10] = biological target: T2, BChE from equine serum; parameters: method as in PMID 23270245, doi:10.1155/2013/71723, PMID 24631841; settings: previous studies; ref [3], [6]–[8]; read-out: IC50 against BChE; cited from earlier work

T1 sequence (O42275 24-633): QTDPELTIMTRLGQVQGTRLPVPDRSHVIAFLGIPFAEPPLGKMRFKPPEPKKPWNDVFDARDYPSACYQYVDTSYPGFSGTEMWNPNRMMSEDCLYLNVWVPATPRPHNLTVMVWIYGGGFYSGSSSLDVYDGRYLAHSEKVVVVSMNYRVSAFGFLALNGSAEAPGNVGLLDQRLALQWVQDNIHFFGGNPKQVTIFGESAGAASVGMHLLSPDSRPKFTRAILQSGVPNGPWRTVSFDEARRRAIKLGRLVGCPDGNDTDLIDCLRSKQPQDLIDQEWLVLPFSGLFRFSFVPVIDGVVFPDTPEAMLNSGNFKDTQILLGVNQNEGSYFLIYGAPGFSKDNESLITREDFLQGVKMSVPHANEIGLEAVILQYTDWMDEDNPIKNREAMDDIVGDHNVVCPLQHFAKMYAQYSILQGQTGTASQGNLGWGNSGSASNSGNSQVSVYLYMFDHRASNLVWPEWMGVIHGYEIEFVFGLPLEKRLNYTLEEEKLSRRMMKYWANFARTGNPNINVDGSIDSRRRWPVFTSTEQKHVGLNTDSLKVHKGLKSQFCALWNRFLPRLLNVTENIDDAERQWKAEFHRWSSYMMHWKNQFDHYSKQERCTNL
T2 sequence (P81908 whole entry): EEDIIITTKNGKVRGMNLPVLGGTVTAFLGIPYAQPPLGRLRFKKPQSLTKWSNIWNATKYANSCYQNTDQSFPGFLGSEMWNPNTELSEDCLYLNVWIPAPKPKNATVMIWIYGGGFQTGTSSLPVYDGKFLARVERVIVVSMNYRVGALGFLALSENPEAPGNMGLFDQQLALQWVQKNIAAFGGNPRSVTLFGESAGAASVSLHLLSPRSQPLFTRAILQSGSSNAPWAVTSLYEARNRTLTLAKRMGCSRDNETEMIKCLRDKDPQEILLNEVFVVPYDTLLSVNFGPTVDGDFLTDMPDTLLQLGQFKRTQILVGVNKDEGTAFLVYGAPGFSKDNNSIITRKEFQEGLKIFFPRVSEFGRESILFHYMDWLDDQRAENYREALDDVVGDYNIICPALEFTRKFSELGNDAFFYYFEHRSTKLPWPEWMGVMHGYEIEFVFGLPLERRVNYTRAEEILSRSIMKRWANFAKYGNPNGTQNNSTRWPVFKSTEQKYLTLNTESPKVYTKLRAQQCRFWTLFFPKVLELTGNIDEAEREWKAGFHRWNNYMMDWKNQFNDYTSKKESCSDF

Row | Compound | SI (AChE selectivity index, IC50 BChE/IC50 AChE) [1] | IC50 [1] | fold reduction of BChE inhibitory activity (BChE from equine serum [2]) | IC50 (BChE from equine serum [2]) | abundance in plasma [3] | further results
1 | O=C(O)C1OC(OC2CCN3Cc4ccccc4N=C23)C(O)C(O)C1O [Metabolite M20-2, 1,2,3,9-tetrahydropyrrolo [2,1-b] quinazolin-3-β-D-glucuronide] | 4.998 | 20.8 ± 0.329 µM | 1027.7 fold | 104 ± 15.5 µM | high abundance | stability in urine sample [4]: hydrolyzed
2 | O=c1c2ccccc2nc2n1CCC2O (stereo not shown) [Metabolite M1, vasicinone] | 0.133 | 76.6 ± 8.46 µM | 101.0 fold | 10.2 ± 2.08 µM | high abundance | fold reduction of AChE inhibitory activity [1]: 22.7 fold; bronchodilatory effects compared with VAS [5]: more bronchodilatory effects than parent VAS; anti-asthmatic activity compared with VAS [6]: more potent anti-asthmatic activity than VAS
3 | Oc1ccc2c(c1)CN1CCC(O)C1=N2 (stereo not shown) [Metabolite M3-2, vasicinol] | 0.930 | 2.65 ± 0.432 µM |  | 2.46 ± 0.224 µM |  | 
4 | O=c1c2cc(O)ccc2nc2n1CCC2O (stereo not shown) [Metabolite M5-2, vasicinolone] | 1.545 | 46.9 ± 2.84 µM |  | 72.4 ± 8.63 µM |  | 
5 | O=S(=O)(O)OC1CCN2Cc3ccccc3N=C12 (stereo not shown) [Metabolite M15, 1,2,3,9-tetrahydropyrrolo [2,1-b] quinazolin-3-yl hydrogen sulfate] | 0.198 | 49.6 ± 2.77 µM |  | 9.82 ± 0.925 µM | high abundance | 
6 | O=c1c2ccccc2nc2n1CCC2OS(=O)(=O)O (stereo not shown) [Metabolite M16, 9-oxo-1,2,3,9-tetrahydropyrrolo [2,1-b] quinazolin-3-yl hydrogen sulfate] | 0.069 | 395 ± 19.5 µM | 2.8 fold | 27.3 ± 5.03 µM | high abundance | fold reduction of AChE inhibitory activity [1]: 8.0 fold
7 | O[C@H]1CCN2Cc3ccccc3N=C12 [Metabolite M0, Vasicine] | 0.030 | 3.38 ± 0.03 µM |  | 0.101 ± 0.003 µM |  | half-life ([7]; after intravenous administration): ~5 h; bioavailability ([7]; after oral administration, read-out: absolute bioavailability): ~50%; half-life ([7]; after oral administration): ~1.5 h; LD50 [8]: 308 mg/kg; observable side effects (rats): no any observable side effects; IC50 [9]: 3.24 ± 0.08 µM; IC50 (BChE from equine serum [10]): 0.1 µM
8 | O=C(O)[C@H]1O[C@@H](O[C@H]2CCn3c2nc2ccccc2c3=O)[C@H](O)[C@@H](O)[C@@H]1O [Metabolite M21-2, vasicinone-3-O-glucuronide] |  |  |  |  | high abundance | stability in urine sample [4]: hydrolyzed
9 | OC1CCN2C1=Nc1ccccc1C2O (stereo not shown) [Metabolite M3-3, 1,2,3,9-tetrahydropyrrolo [2,1-b] quinazolin-3,9-diol] |  |  |  |  | high abundance | 
